# Measurements from US7745390B2, “Antimicrobial peptides” (priority 2005, dated 2010).
# Ends that are not written are not given here.
# What was measured:
# Salmonella = type: cell-based, S. typhimurium; details: pH 7.2
# Description: (§1) The experiments described above characterizing the activity of granulysin peptides G1-G18 relied on counting bacterial colonies on plates. This assay is quite labor intensive and would not allow evaluation of many different compounds on a number of different microbes. Therefore, we optimized an assay in which the entire procedure could be completed in a single microtiter well. Briefly, peptides are diluted in 10 mM phosphate buffer, pH 7.2 supplemented with 0.03% LB (J. Sambrook, D. W. Russell, Molecular Cloning: A Laboratory Manual (Cold Spring Harbor Laboratory Press, New York, ed. 3, 2001) pg. A2.2, Retrieved from http://openwetware.org/wiki/LB) and 25 μl is added to microtiter wells. Bacteria (25 μl) are added (˜5×10^6 colony forming units/ml) in the same buffer. After a 3-hour incubation at 37° C., 150 μl of LB is added and the plates are incubated overnight. The OD at 600 nm is read on an ELISA plate reader. The minimum inhibitory concentration (MIC) is the lowest concentration allowing no bacterial growth. The IC50 is the concentration of peptide that results in 50% growth compared to the medium.
# (§2) We now describe additional peptides and their activity. The peptides have been designed, synthesized, and have been tested for lysis of E. coli and S. typhimurium (gram negative bacteria), B. cereus (gram positive bacterium). Results are shown in Table 2 along with the amino acid sequence of the peptide. Changes from the naturally occurring sequence are underlined. In general, the desired result is lysis of bacteria at low concentration (<1 μM).
# (§3) In Table 2, Columns 2-7 are the MIC and IC50 (concentration required for 50% inhibition of growth) for each organism (E. coli, Salmonella, and B. cereus). The MIC (minimum inhibitory concentration) was determined as described above, in a multiwell plate assay. […] L-isomer amino acids are designated by capital letters while D-isomer amino acids are designated by lower case letters.
# E. coli DH5a = type: cell-based; details: DH5a, pH 7.2
# Description: as §1, §2, §3
# B. cereus = type: cell-based; details: pH 7.2
# Description: as §1, §2, §3
Sequence,IC50 (Salmonella),Salmonella MIC (Salmonella),E. coli DH5a MIC (E. coli DH5a),IC50 (E. coli DH5a),B. cereus MIC (B. cereus),IC50 (B. cereus)
KKVSKKFMKKGSKKVSKKFMKKGSKKVSKKFMKK [Peptide G11.25],100 nM,0.15 µM,0.15 µM,100 nM,0.15 µM,100 nM
KKVSKKFMKKYQSKVIQGLV [Peptide G12.9],850 nM,1.4 µM,1.35 µM,490 nM,5.6 µM,3510 nM
"QKSVSKAATKVSKTGKSKW [Peptide G13.9, QKSVSKAATKVSKTGKSKW]",> 10000 nM,>10 µM,1.45 µM,890 nM,>10 µM,7700 nM
QRAVANAATRVARTGRARWRDVARRFMRR [Peptide G8.6],430 nM,0.7 µM,0.7 µM,450 nM,1.5 µM,890 nM
"QRAVARAATRVARTGRARW [Peptide G13.6, QRAVARAATRVARTGRARW]",7480 nM,>10 µM,2.8 µM,1650 nM,>10 µM,7700 nM
QRAVARAATRVARTGRARWRDVARNFMRR [Peptide G8.5],420 nM,0.7 µM,1.4 µM,880 nM,1.4 µM,880 nM
QRAVARAATRVARTGRARWRDVARRFMRR [Peptide G8.7],420 nM,0.7 µM,1.4 µM,850 nM,0.7 µM,450 nM
QRAVARAATRVARTGRARWRRVARRFMRR [Peptide G8.10],210 nM,0.35 µM,0.63 µM,450 nM,0.75 µM,450 nM
QRRSSRFMRRYQRVVPRGLV [Peptide G12.24],700 nM,1.4 µM,0.8 µM,420 nM,0.8 µM,420 nM
"QRSVSNAATRVCRT [Peptide G10, QRSVSNAATRVCRT, reference compound]",> 10000 nM,>10 µM,>10 µM,> 10000 nM,>10 µM,> 10000 nM
QRSVSNAATRVSRTGRSRWRDVSRRFMRR [Peptide G8.3],450 nM,0.67 µM,0.7 µM,550 nM,1.25 µM,700 nM
QRSVSNPPTRVSRPPRSRWRDVSRPPMRR [Peptide G8.16],> 10000 nM,>10 µM,0.7 µM,400 nM,>10 µM,7300 nM
"QRSVSRAATRVCRTGRSNW [Peptide G13.10, QRSVSRAATRVCRTGRSNW]",> 10000 nM,>10 µM,0.71 µM,250 nM,5.6 µM,3500 nM
QRSVSRAATRVSRTGRSNWRDVGRRFMRR [Peptide G8.15],410 nM,0.7 µM,0.8 µM,450 nM,0.7 µM,450 nM
"QRSVSRAATRVSRTGRSRW [Peptide G13.2, QRSVSRAATRVSRTGRSRW]",7300 nM,>10 µM,1.37 µM,850 nM,5.6 µM,3400 nM
QRSVSRAATRVSRTGRSRWRDVSRNFMRR [Peptide G8.2],550 nM,1.4 µM,1.4 µM,580 nM,1.39 µM,510 nM
QRSVSRAATRVSRTGRSRWRDVSRRFMRR [Peptide G8.4],210 nM,0.35 µM,0.7 µM,450 nM,0.7 µM,450 nM
"QRSVSRAPTRVSRTGRSRW [Peptide G13.8, QRSVSRAPTRVSRTGRSRW]",> 10000 nM,>10 µM,5.7 µM,3300 nM,>10 µM,7700 nM
"QRSVSRPPTRVSRPPRSRW [Peptide G13.13, QRSVSRPPTRVSRPPRSRW]",1400 nM,>10 µM,5.1 µM,380 nM,>10 µM,> 10000 nM
"QRSVSRPPTRVSRTGRARW [Peptide G13.12, QRSVSRPPTRVSRTGRARW]",> 10000 nM,>10 µM,5.65 µM,1750 nM,>10 µM,> 10000 nM
"QRSVSRPPTRVSRTGRSRW [Peptide G13.11, QRSVSRPPTRVSRTGRSRW]",> 10000 nM,>10 µM,5.75 µM,2720 nM,>10 µM,> 10000 nM
"RDVARRFMRRQSRVISRLV [Peptide G12.15, RDVARRFMRRQSRVISRLV]",420 nM,0.69 µM,1.4 µM,890 nM,2.8 µM,1750 nM
"RDVCRNFMRR [Peptide G11, RDVCRNFMRR, reference compound]",> 10000 nM,>10 µM,>10 µM,> 10000 nM,>10 µM,> 10000 nM
RDVSRRFMRRGRDVSRRFMRR [Peptide G11.38],820 nM,1.35 µM,0.7 µM,420 nM,1.4 µM,890 nM
"RDVSRRFMRRQSRVIQGLV [Peptide G12.3, RDVSRRFMRRQSRVIQGLV]",3500 nM,5.5 µM,5.7 µM,3510 nM,>10 µM,7700 nM
RDVSRRFMRRRDVSRRFMRR [Peptide G11.39],1700 nM,2.75 µM,0.7 µM,220 nM,0.7 µM,450 nM
"RRDSRRFMRR [Peptide G11.11, RRDSRRFMRR]",> 10000 nM,>10 µM,>10 µM,7450 nM,>10 µM,> 10000 nM
